Target: T1, GABA A α5 (human receptors of composition α5β3γ2) (Homo sapiens, UniProt P18507+P31644)
T1 construct: expressed in transfected cells; host or cells: HEK293, transiently transfected; membranes prepared from cell pellets
Assay: [3H]flumazenil competition binding, HEK293 cells expressing human GABA A α5β3γ2 receptors
Conditions: [3H]-Flumazenil 0.5 nM, means of two determinations, read-out: hKi (GABA Aα5)
Experimental: The affinity of compounds at GABA A receptor subtypes was measured by competition for [^3H]flumazenil (85 Ci/mmol; Roche) binding to HEK293 cells expressing rat (stably transfected) or human (transiently transfected) receptors of composition α1β3γ2, α2β3γ2, α3β3γ2 and α5β3γ2.
Cell pellets were suspended in Krebs-tris buffer (4.8 mM KCl, 1.2 mM CaCl2, 1.2 mM MgCl2, 120 mM NaCl, 15 mM Tris; pH 7.5; binding assay buffer), homogenized by polytron for ca. 20 sec on ice and centrifuged for 60 min at 4° C. (50000 g; Sorvall, rotor: SM24=20000 rpm). The cell pellets were resuspended in Krebs-tris buffer and homogenized by polytron for ca. 15 sec on ice. Protein was measured (Bradford method, Bio-Rad) and aliquots of 1 mL were prepared and stored at −80° C.
Radioligand binding assays were carried out in a volume of […] (96-well plates) which contained […] of cell membranes, [^3H]-Flumazenil at a concentration of 1 nM for α1, α2, α3 subunits and 0.5 nM for α5 subunits and the test compound in the range of […]. Nonspecific binding was defined by 10^−5 M diazepam and typically represented less than 5% of the total binding. Assays were incubated to equilibrium for 1 hour at 4° C. and harvested onto GF/C uni-filters (Packard) by filtration using a Packard harvester and washing with ice-cold wash buffer (50 mM Tris; pH 7.5). After drying, filter-retained radioactivity was detected by liquid scintillation counting. Ki values were calculated using Excel-Fit (Microsoft) and are the means of two determinations.
Representative test results, obtained by the above described assay measuring binding affinity to HEK293 cells expressing human (h) receptors, are shown in table 1 below.

Row | Compound | Ki
1 | Cc1onc(-c2ccccc2)c1COc1ccc(C(=O)NN2CCOCC2)cn1 [Example 2, 6-((5-Methyl-3-phenyl-isoxazol-4-yl)-methoxy)-N-morpholin-4-yl-nicotinamide] | 0.6 nM
2 | Cc1onc(-c2ccccc2)c1COc1ccc(C(=O)NN2CCCCC2)cn1 [Example 3, 6-((5-Methyl-3-phenyl-isoxazol-4-yl)-methoxy)-N-piperidin-1-yl-nicotinamide] | 4 nM
3 | Cc1onc(-c2ccccc2)c1COc1ccc(C(=O)NN2CCCC2)cn1 [Example 4, 6-((5-Methyl-3-phenyl-isoxazol-4-yl)-methoxy)-N-pyrrolidin-1-yl-nicotinamide] | 2.6 nM
4 | Cc1onc(-c2ccccc2)c1COc1ccc(C(=O)NN2CCS(=O)(=O)CC2)cn1 [Example 5, N-(1,1-Dioxo-1,6-thiomorpholin-4-yl)-6-((5-methyl-3-phenyl-isoxazol-4-yl)-methoxy)-nicotinamide] | 2.6 nM
5 | Cc1onc(-c2ccc(F)cn2)c1COc1ccc(C(=O)NN2CCOCC2)cn1 [Example 7, 6-[(3-(5-Fluoro-pyridin-2-yl)-5-methyl-isoxazol-4-yl)-methoxy]-N-morpholin-4-yl-nicotinamide] | 0.4 nM
6 | CCCCc1noc(C)c1COc1ccc(C(=O)NN2CCOCC2)cn1 [Example 8, 6-((3-Butyl-5-methyl-isoxazol-4-yl)-methoxy)-N-morpholin-4-yl-nicotinamide] | 6.4 nM
7 | CCCCc1noc(C)c1COc1ccc(C(=O)NN2CCCC2)cn1 [Example 9, 6-((3-Butyl-5-methyl-isoxazol-4-yl)-methoxy)-N-pyrrolidin-1-yl-nicotinamide] | 19.4 nM

Further molecules by falling Ki, results first:

Row | Ki | Compound
8 | 18.7 nM | CCCCc1noc(C)c1COc1ccc(C(=O)NN(C)C)cn1 [Example 10, 6-((3-Butyl-5-methyl-isoxazol-4-yl)-methoxy)-nicotinic acid 2,2-dimethyl-hydrazide]
9 | 9.5 nM | Cc1onc(-c2ccccc2)c1COc1ccc(C(=O)NN2CCOCC2)nn1 [Example 11, 6-((5-Methyl-3-phenyl-isoxazol-4-yl)-methoxy)-pyridazine-3-carboxylic acid morpholin-4-ylamide]
10 | 5.4 nM | Cc1onc(-c2ccccc2)c1COc1ccc(C(=O)NN)cn1 [Example 1, 6-((5-Methyl-3-phenyl-isoxazol-4-yl)-methoxy)-nicotinic acid hydrazide]
11 | 4.8 nM | Cc1onc(-c2ccccc2)c1COc1ccc(C(=O)NNS(C)(=O)=O)cn1 [Example 6, 6-((5-Methyl-3-phenyl-isoxazol-4-yl)-methoxy)-nicotinic acid N′-(methylsulfonyl)-hydrazide]
